Measurements from US4404215A, “Piperidyl phenyl trifluoroethanols” (Science Union et Cie, priority 1978, dated 1983).
Values belong to the compound of their own block, whether it stands above or below them.

Legend:
solubility = type: physicochemical; details: for solubility in organic solvents: most of the organic solvents
[1] = antipyretic effect, baker yeast hyperthermia (LOUX); type: in vivo; details: rats; paracetamol 50 to 500 mg
Protocol: The antipyretic effect of the compounds of formula I has been determined according to the method described by J. J. LOUX and cowork. Toxicol. and Appl. Pharmacol. 22 (1972) 672. According to this method a hyperthermic crisis occurs in the rats after subcutaneous injection of baker yeast.
The compounds to be tested are administered orally in a suspension of an arabic gum solution 19 hours after the injection of yeast.
The body temperatures are measured from 1 to 5 hours after the ingestion of the compounds of formula I by means of a thermistor. The dosages tested range from 25 to 200 mg/kg.
The increase of body temperature in the control rats is about 2° in comparison of that of the untreated rats. The animals which receive the compounds of formula I show only a moderate increase of temperature, mainly 3 and 4 hours after the ingestion of the tested compound. The highest dosages (150 and 200 mg/kg) caused a return to the initial temperature in the treated animals.
In similar experimental conditions, batches of rats receive paracetamol at dose ranging from 50 to 500 mg.

[2] = nephrotoxicity and hepatotoxicity context; cited from earlier work

Compound: CC(=O)Nc1ccc(C(O)C(F)(F)F)cc1 (centres unmarked) [Example 1, 1-(4-acetamidophenyl) 2,2,2-trifluoroethanol]
- solubility in ethanol (solubility; ethanol): soluble
- solubility in methanol (solubility; methanol): soluble
- solubility in water (solubility): insoluble

Compound: OC(c1ccc(NC2CCN(CCc3ccccc3)CC2)cc1)C(F)(F)F (centres unmarked) [Example 9, 4-[4-(2,2,2-trifluoro 1-hydroxyethyl)phenylamino] 1-(2-phenylethyl) piperidine]
- solubility in N/10 hydrochloric acid (solubility; just calculated amount of N/10 hydrochloric acid): soluble

Compound: CC(=O)Nc1ccc(O)cc1 [paracetamol]
- useful dose which curbs significantly the increase of temperature, relative to compounds of formula I [1]: about twice of that of the compounds of formula I
- toxicity [2]: well-known toxicity

Results, then the compound that gave them:

- solubility in dilute solutions of acids (solubility; hydrochloric acid or acetic acid): soluble
Compound: CCCCCCCCCCCCCCCCNc1ccc(C(O)C(F)(F)F)cc1 (racemic) [Example 8, 1-(4-nhexadecylaminophenyl) 2,2,2-trifluoroethanol]

- solubility in organic solvents (solubility): soluble
- solubility in water (solubility): insoluble
Compound: CC(C)C(=O)Nc1ccc(C(O)C(F)(F)F)cc1 (centres unmarked) [Example 2, 1-(4-isobutyramidophenyl) 2,2,2-trifluoroethanol]

- solubility in organic solvents (solubility): soluble
- solubility in water (solubility): insoluble
Compound: CCOC(c1ccc(NC(C)=O)cc1)C(F)(F)F (centres unmarked) [Example 10, 1-(4-acetamidophenyl) 1-ethoxy 2,2,2-trifluoroethane]
